Data reported in patent publication US20230165865A1, “HETEROARYLDIHYDROPYRIMIDINE DERIVATIVES AND METHODS OF TREATING HEPATITIS B INFECTIONS” (Janssen Pharmaceutica NV, priority 2018, published 2023).
Read-outs that look alike come from different tables or passages of the source.

Experiments:
[1] = test system: CYP3A4; assay: In vitro assessment of CYP3A4 induction in cryopreserved human hepatocytes (mRNA level); type: in vitro ADME
Experimental: Preparation and Plating of Human Hepatocytes • 1. The cryopreserved human hepatocytes were thawed in 37° C. water bath and diluted by plating medium to a seeding density of 0.55×10^6 cells/mL. • 2. Transfer 100 μL to each well of collagen I coated 96-well plate. Place plate(s) in incubator and incubate at 37° C. for 4-6 hours. • 3. After incubation, observe cell morphology, agitate plate(s) to loosen debris, and replace medium. Place plate in incubator and incubate for 18 hours. Incubation with Test Compound(s) • 1. Prepare dilute test compound and positive control inducers with 37° C. prepared incubation medium to respective working concentrations (Table 11). Final concentration of DMSO in the treatment group will be 0.1%. Prepare 25 mM chlorpromazine in DMSO and dilute 1000-fold with incubation medium as a cytotoxicity control. • 2. Remove the Hepatocyte plate from the incubator. Observe cell morphology. Replace the medium in the appropriate wells with 125 μL of the toxicity controls, DMSO controls, inducers, or test article solutions, each in triplicate. • 3. After 24 hours and 48 hours, remove the Hepatocyte plate from the incubator and observe cell morphology. Renew the medium with test articles that freshly diluted from DMSO stocks. Return plate to the incubator. 4. mRNA Preparation and RT-PCR • 1. mRNA was prepared and measured using the Cells-to-Ct kit. Add DNase to Lysis solution. • 2. 15 μL of sample lysate was added to 35 µL of Reverse Transcription Master Mix (containing 2×RT Buffer, 20×RT Enzyme Mix and Nuclease-free Water) for a final 50 μL reaction volume. • 3. Separate PCR cocktails were prepared for CYP3A4; containing the CYP specific probe set and that of ACTB as the endogenous control gene. […] Reactions were analyzed on an Applied Biosystems Real Time PCR system (AB 7500). […] For mRNA level determination, the mRNA content in each well is expressed as 2^Ct(ACTB)-Ct(CYP). Fold of induction=mRNA(induced)/mRNA(vehicle) 3) The percent adjusted positive control is determined by: % of positive control=[(fold induction of test article)/(fold induction of positive control)]*100

[2] = Pharmacokinetic and tissue distribution study via intravenous and oral administration in male C57BL/6 mice; type: in vivo; conditions: for Kp / clearance / Cmax: male, C57BL/6, mouse; for Kp: liver and plasma, po; for Kp / Cmax / Liver AUCinf/Dose / Liver Cmax/Dose / PO AUCinf/Dose: PO; for clearance / IV AUCinf/Dose: IV, nominal 2 mg/kg; for clearance: read-out: IV Cl; for Cmax: dose per compound in table (5.28-9.95 mg/kg); for F: PO vs IV
Experimental: Male C57BL/6 mice with a weight range of 20-25 g (Hua Fu Kang, China) were used. Animals were fasted overnight and free access to food 4 hours after dosing.
Test compound (correction factor: 1.00) was dissolved in a 20% hydroxypropyl-β-cyclodextrin (HP-β-CD) at a final concentration of 1 mg/ml for the intravenous (IV) formulation and at final concentrations of 0.5 mg/ml for the oral (PO) formulation. The intravenous formulation was dosed at 2 ml/kg to obtain a dose of 2 mg/kg. The oral formulations were dosed at 10 ml/kg to obtain final doses of 5 mg/kg.
Blood samples were taken at 7 and 20 min, 1, 2, 4, 8 and 24 h after intravenous dose administration. Blood and liver samples were taken at 30 min, 1, 2, 4, 8, 12 and 24 h after oral dose administration.
Approximately 0.020 mL blood will be collected into BD blood collection tubes containing K3-EDTA at each time point. Samples were placed immediately on melting ice and plasma was obtained following centrifugation at 4° C. for 5 minutes at approximately 4000×g. Plasma samples were adjusted to pH 3-4 by phosphoric acid and stored at −75±15° C. prior to analysis. The whole process was completed within 1 hour.
Liver samples were collected at adopted time point, and the vial containing the tissues sample was snap-frozen in liquid nitrogen right away and kept at −75±15° C. prior to analysis. All liver samples were weighed and homogenized with phosphoric acid solution (pH to 3-4) by liver weight (g) to phosphoric acid solution volume (mL) ratio 1:4 before analysis.
Plasma and liver samples were analyzed using LC-MS/MS methods. The lower limit of quantification (LLOQ) for plasma was 1.0 ng/ml and for liver was 2.5 ng/g. A non-compartmental analysis using the “Linear up log down” rule was used for all data. A limited pharmacokinetic analysis was performed using Phoenix™ Professional (Version 6.1).

[3] = Metabolic stability of test compound in human hepatocyte cell; type: in vitro ADME; conditions: cryopreserved human hepatocytes (suspension), human hepatocytes; for half-life at 1 uM: 0-120 min, read-out: T½; for CLint scaled at 1 uM: scale-up intrinsic clearance, scaling factor 2544.3, read-out: Clint (liver)
Experimental: • 1. The cryopreserved human hepatocytes cells were thawed in 37° C. water bath and diluted with pre-warmed incubation medium to a working cell density of 1×10^6 viable cells/mL. • 2. The 198 μL pre-warmed hepatocyte suspensions were spiked with 2 μL of 100 μM compound or reference compound(Verapamil) at a final concentration of 1.0 μM in a 96-well plate. The plate was incubated at 37° C., 900 rpm. All incubations will be performed in singlet. • 3. 25 μL aliquots of well contents were collected at time points of 0, 15, 30, 60, 90 and 120 minutes. The reactions were stopped by the addition of 6-fold volumes of cold acetonitrile with internal standards. • 4. After centrifugation for 25 minutes at 3,220 g. Aliquot of 100 μL of the supernatant was mixed with 100 μL of ultra-pure H2O and then used for LC-MS/MS analysis.
All calculations were carried out using Microsoft Excel. Peak areas were determined from extracted ion chromatograms. Determine the in vitro half-life (t1/2) of parent compound by regression analysis of the percent parent disappearance vs. time curve.
The in vitro half-life (in vitro t1/2) is determined from the slope value k:
Conversion of the in vitro t1/2(in min) into the in vitro intrinsic clearance (in vitro CLint, in μL/min/10^6 cells) is done using the following equation:
V=incubation volume (0.2 mL);
N=number of hepatocytes per well (0.2×10^6 cells).
Conversion of the in vitro t1/2(in min) into the scale-up intrinsic clearance (CLint(liver), in mL/min/kg) was done using the following equation:
CLint(liver)=kV/N×scaling factor

[4] = mice, read-out: AUCInf Ratio (Liver/Plasma)
[5] = mice, read-out: Cmax Ratio (Liver/Plasma)

Row | mRNA Percentage of positive control at 10 uM ([1]; CYP3A4 mRNA, donor 1, 10 μM, positive control rifampicin) [%] | mRNA Fold induction (Mean ± SD) ([1]; CYP3A4 mRNA, donor 1, 10 μM, vs vehicle) | Compound | CYP induction effect, in words ([1]; CYP3A4, comparing with reference 2) | Kp [2, 4] | Kp [2, 5] | clearance ([2]; mice plasma) [mL/min/kg] | Cmax ([2]; mice plasma) [ng/mL] | Liver AUCinf/Dose ([2]; mice liver) [ng·kg·h/g/mg] | Liver Cmax/Dose ([2]; mice liver) [kg·ng/mg/mL] | dose-normalized Cmax and dose-normalized AUCinf in liver, in words ([2]; mice liver, comparing with reference 1 and reference 2) | IV AUCinf/Dose ([2]; mice plasma) [ng·kg·h/mg/mL] | PO AUCinf/Dose ([2]; mice plasma) [ng·kg·h/mg/mL] | clearance, in words ([2]; mice plasma, comparing with reference 1 and reference 2) | F ([2]; mice) [%] | bioavailability in plasma, in words ([2]; mice, comparing with reference 1 and reference 2) | half-life at 1 uM [3] [h] | CLint scaled at 1 uM [3] [mL/min/kg]
1 |  |  | CCOC(=O)C1=C(CN2CCN3C(=S)N(CC(C)(C)C(=O)O)CC3C2)NC(c2nccs2)=N[C@H]1c1cccc(F)c1C (single isomer, unassigned) [Compound 1A] | no CYP induction effect | 17.5 | 14 | 16.6 | 2350 | 13733 | 6225 | far increased | 1078.3 | 784.8 | far slower clearance | 72.9 | increased bioavailability | 3.82 | 7.7
2 | 20.50 | 5.05 ± 0.61 | CCOC(=O)C1=C(CN2CCN3C(=O)N(CC(C)(C)C(=O)O)C[C@@H]3C2)NC(c2nccs2)=N[C@H]1c1cccc(F)c1C [Reference 2, reference compound] |  | 15.9 | 12.2 | 49.1 | 733 | 2894 | 1676 |  | 345.2 | 181.5 |  | 52.7 |  | 2.45 | 12
